In patent US5798359A, “Piperazino derivatives as neurokinin antagonists” (Schering Corporation, priority 1995, dated 1998):

Experiments:
[1] = molecular target: T1, human neurokinin 1 (NK1) receptor (Homo sapiens, UniProt P25103); assay: Neurokinin NK1 receptor binding assay ([3H]-Substance P, CHO cell membranes); conditions: for Ki: [3H]-Substance P 0.8 nM, Cheng and Prusoff
T1 construct: expressed in transfected cells; host or cells: Chinese hamster ovary (CHO) cells, G418 medium; membranes
Protocol: (§1) Chinese Hamster ovary (CHO) cells transfected with the coding regions for the human neurokinin 1 (NK1) of the human neurokinin 2 (NK2) receptors are grown in Dulbecco's minimal essential medium supplemented with 10% fetal calf serum, 0.1 mM non-essential amino acids, 2 mM glutamine, 100 units/ml of penicillin and streptomycin, and 0.8 mg of G418/ml at 37° C. in a humidified atmosphere containing 5% CO2.
(§2) Cells are detached from T-175 flasks with a sterile solution containing 5 mM EDTA in phosphate buffered saline. Cells are harvested by centrifugation and washed in RPMI media at […] for 5 minutes. The pellet is resuspended in Tris-HCl (pH7.4) containing 1 uM phsphoramidon and 4 ug/ml of chymostatin at a cell density of 30×10^6 cells/ml. The suspension is then homogenized in a Brinkman Polytron (setting 5) for 30-45 seconds. The homogenate is centrifuged at 800×g for 5 min at […] to collect unbroken cells and nuclei. The supernatant is centrifuged in a Sorvall RC5C at 19,000 rpm ([…]) for 30 min at 4° C. The pellet is resuspended, an aliquot is removed for a protein determination (BCA) and washed again. The resulting pellet is stored at -80° C.
(§3) Binding is initiated by the addition of 100 μl of membrane (10-20 μg) containing the human NK-1 or NK-2 receptor in a final volume of 200 μl. After 40 minutes at room temperature, the reaction is stopped by rapid filtration onto Whatman GF/C filters which have been presoaked in 0.3% polyethylenimine. Filters are washed 2 times with 3 ml of 50 mM Tris-HCl (pH7.4). Filters are added to 6 mls of Ready-Safe liquid scintillation cocktail and quantified by liquid scintillation spectrometry in a LKB 1219 RackBeta counter. Non-specific binding is determined by the addition of either 1 μM of CP-99994 (NK1) or 1 μM SR-48968 (NK2) (both synthesized by the chemistry department of Schering-Plough Research Institute).

[2] = molecular target: T2, human neurokinin 2 (NK2) receptor (Homo sapiens, UniProt P21452); assay: Neurokinin NK2 receptor binding assay ([3H]-Neurokinin A, CHO cell membranes); conditions: for inhibition at 1 µM: 1 μM concentration
T2 construct: expressed in transfected cells; host or cells: Chinese hamster ovary (CHO) cells, G418 medium; membranes
T2 sequence (P21452 1-398): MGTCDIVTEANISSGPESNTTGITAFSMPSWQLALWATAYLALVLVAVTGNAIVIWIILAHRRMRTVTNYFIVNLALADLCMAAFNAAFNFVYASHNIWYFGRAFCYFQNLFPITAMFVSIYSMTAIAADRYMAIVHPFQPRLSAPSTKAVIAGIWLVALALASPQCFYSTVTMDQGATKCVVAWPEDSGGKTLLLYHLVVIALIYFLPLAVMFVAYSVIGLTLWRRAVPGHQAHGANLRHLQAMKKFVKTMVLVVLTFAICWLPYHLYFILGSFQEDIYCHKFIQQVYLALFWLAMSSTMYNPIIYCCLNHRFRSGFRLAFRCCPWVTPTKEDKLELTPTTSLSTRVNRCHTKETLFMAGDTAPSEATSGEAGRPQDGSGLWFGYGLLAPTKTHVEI
Protocol: as §1, §2, §3

T1 sequence (P25103 whole entry): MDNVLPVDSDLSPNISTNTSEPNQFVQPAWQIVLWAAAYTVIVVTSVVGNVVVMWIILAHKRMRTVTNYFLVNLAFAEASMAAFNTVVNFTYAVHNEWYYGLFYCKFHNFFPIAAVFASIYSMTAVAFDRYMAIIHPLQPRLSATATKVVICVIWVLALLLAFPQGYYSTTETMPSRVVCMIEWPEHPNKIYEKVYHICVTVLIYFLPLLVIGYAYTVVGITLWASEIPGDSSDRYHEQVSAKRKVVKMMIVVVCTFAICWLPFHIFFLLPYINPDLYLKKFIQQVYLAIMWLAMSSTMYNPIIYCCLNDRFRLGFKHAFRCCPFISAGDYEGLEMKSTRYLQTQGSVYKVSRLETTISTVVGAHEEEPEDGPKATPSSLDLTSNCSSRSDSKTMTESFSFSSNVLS

SMILES | Ki [1] | inhibition at 1 µM [2] | Ki ([2]; [3H]-Neurokinin A 1.0 nM, Cheng and Prusoff) | inhibition at 1 µM ([1]; 1 μM concentration)
COC1(C[S+]([O-])c2ccccc2)CCN(CC(=O)N2CCN(Cc3cc(C(F)(F)F)cc(C(F)(F)F)c3)CC2c2ccc(Cl)c(Cl)c2)CC1 (stereo not drawn) | 136 nM | 24% | – | –
O=C(CNC1CCN(Cc2ccccc2)CC1)N1CCN(Cc2cccc(C(F)(F)F)c2)CC1c1ccc(Cl)c(Cl)c1 (stereo not drawn) | 30 nM | – | 175 nM | –
Cc1cccc(C)c1N1CCN(CC(=O)N2CCN(Cc3cc(C(F)(F)F)cc(C(F)(F)F)c3)CC2c2ccccc2)CC1 (stereo not drawn) | – | 0% | – | 48%
